Reference: US20230295130A1, “COMPOUND USEFUL AS CDK7 KINASE INHIBITOR AND USE THEREOF” (TYK MEDICINES, INC., priority 2020, published 2023)
Like-named read-outs stand apart in the source and are kept apart here.

Key:
Assay in all cases: Enzyme activity test, mobility shift assay (Table 1)
Format in all cases: biochemical
[1] = target: CDK7/Cyclin H/MAT1 kinase (Homo sapiens (Human), UniProt P50613); details: 2 mM ATP; pre-incubated 0 and 60 minutes
Description: IC50 values of the compounds for CDK7 kinase were detected in Wuxi Biortus Biosciences Co. Ltd.
(§1) The compound powder was dissolved in 100% DMSO to prepare a 10 mM storage solution. The storage solution was further diluted to 0.5 mM as the initial concentration, and continuously diluted 3 times to obtain 10 compound solutions with different concentrations. The compound and enzyme were pre-incubated for 0 minutes and 60 minutes, respectively, using duplicate detection.
(§2) was used as a positive control, and Mobility shift assay method was used to detect CDK kinase (such as CDK7, CDK9, CDK12 and CDK2) activity of the compounds.

CDK2/Cyclin El = CDK2/Cyclin El (Homo sapiens (Human), UniProt P24941); details: 2 mM ATP; read-out: CDK2 kinase IC50
Description: as §1, §2

CDK9/Cyclin Tl = CDK9/Cyclin Tl (Homo sapiens (Human), UniProt P50750); details: 2 mM ATP; read-out: CDK9 kinase IC50
Description: as §1, §2

[2] = target: CDK12 (aa686-1082)/Cyclin K (Homo sapiens (Human), UniProt Q9NYV4)
Description: as §1, with “detection. Compound Staurosporine having a structural formula of” for “detection.”
as §2

Chain of CDK7/Cyclin H/MAT1 kinase (P50613 whole entry): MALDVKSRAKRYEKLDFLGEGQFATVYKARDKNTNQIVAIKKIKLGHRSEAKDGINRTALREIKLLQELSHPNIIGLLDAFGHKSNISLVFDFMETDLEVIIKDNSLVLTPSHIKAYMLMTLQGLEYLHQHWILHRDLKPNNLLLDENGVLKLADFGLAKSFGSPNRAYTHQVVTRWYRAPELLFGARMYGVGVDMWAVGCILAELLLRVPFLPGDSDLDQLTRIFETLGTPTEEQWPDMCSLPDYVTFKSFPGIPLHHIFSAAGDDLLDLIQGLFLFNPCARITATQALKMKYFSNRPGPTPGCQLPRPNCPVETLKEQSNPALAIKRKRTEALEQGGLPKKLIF
Chain of CDK7/Cyclin H/MAT1 kinase (P51946 whole entry partner): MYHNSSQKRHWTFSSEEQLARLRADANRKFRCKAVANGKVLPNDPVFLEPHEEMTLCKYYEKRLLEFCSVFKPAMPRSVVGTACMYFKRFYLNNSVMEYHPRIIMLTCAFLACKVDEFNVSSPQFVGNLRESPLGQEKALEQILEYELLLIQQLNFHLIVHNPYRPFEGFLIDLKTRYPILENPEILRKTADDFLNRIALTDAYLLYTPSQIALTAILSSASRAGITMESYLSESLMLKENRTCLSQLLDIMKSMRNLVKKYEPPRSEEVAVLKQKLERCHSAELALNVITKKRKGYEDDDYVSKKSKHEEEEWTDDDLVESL
Chain of CDK7/Cyclin H/MAT1 kinase (P51948 whole entry partner): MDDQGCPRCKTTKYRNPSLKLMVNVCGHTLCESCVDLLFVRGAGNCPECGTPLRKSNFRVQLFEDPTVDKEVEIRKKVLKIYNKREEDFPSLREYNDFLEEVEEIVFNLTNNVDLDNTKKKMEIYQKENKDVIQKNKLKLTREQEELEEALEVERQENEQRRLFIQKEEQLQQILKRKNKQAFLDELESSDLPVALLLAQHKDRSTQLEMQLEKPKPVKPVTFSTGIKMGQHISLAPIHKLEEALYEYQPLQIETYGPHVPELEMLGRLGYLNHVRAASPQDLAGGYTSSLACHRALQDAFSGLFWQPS
Chain of CDK12 (aa686-1082)/Cyclin K (Q9NYV4 686-1082): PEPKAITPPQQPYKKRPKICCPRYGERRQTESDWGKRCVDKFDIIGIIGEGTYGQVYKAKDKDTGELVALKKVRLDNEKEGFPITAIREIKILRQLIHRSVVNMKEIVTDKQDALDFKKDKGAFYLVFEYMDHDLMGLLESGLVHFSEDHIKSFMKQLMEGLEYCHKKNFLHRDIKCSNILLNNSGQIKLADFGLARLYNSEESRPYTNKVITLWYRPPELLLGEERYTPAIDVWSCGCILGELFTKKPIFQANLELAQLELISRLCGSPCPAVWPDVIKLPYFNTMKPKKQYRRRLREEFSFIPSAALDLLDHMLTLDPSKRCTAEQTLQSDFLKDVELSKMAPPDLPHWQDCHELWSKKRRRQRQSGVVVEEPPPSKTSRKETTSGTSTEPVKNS
Chain of CDK12 (aa686-1082)/Cyclin K (O75909 whole entry partner, the tested form may be a part): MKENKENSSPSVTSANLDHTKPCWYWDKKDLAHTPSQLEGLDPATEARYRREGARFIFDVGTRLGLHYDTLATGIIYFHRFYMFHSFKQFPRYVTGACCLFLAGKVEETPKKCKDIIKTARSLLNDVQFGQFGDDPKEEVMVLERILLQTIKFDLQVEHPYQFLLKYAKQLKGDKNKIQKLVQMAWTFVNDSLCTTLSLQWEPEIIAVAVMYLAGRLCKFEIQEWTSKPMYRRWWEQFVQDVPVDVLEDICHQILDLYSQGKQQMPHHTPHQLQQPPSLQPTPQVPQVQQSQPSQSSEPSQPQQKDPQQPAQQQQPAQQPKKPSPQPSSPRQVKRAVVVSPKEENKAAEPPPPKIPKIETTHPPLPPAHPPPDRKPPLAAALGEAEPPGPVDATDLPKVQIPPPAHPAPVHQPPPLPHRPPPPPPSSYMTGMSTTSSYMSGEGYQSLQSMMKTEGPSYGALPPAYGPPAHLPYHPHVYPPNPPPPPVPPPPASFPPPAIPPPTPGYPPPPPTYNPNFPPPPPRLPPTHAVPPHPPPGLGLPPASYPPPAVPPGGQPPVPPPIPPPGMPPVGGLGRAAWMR
Chain of CDK9/Cyclin Tl (P50750 whole entry): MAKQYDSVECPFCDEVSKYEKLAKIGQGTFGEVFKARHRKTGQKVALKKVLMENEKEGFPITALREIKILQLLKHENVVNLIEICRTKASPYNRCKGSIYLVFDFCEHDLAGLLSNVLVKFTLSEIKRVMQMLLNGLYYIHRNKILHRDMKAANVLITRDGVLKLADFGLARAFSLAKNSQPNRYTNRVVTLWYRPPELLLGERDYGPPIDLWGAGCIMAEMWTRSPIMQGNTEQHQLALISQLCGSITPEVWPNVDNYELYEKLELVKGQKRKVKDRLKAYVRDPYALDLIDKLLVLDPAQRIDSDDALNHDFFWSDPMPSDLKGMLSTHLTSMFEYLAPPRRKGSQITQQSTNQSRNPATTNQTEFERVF
Chain of CDK9/Cyclin Tl (O60563 whole entry partner): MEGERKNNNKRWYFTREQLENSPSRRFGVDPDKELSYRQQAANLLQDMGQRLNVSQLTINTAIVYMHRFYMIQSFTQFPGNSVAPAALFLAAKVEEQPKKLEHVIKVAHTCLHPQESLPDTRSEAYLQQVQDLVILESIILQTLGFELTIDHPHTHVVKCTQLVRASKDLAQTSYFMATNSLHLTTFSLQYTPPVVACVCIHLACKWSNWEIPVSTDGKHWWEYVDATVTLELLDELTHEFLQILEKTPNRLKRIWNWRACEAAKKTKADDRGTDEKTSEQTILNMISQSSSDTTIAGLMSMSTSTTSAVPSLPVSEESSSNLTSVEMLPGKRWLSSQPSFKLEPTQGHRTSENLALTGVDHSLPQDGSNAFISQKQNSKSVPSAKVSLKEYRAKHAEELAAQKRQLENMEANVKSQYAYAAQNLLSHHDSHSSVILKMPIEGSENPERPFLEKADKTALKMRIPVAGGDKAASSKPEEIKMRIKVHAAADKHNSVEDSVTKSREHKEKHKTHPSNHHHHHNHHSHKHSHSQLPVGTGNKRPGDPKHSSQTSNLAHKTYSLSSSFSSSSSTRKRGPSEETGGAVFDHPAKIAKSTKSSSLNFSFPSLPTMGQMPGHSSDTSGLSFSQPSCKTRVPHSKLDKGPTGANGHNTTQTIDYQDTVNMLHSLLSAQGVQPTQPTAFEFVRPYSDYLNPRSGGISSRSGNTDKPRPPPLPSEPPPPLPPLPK

IC50 [1] [nM] | SMILES | other results
< 50 | COC(=O)Nc1ccc2c(-c3nc(N[C@H]4CCCNC4)ncc3C(F)(F)F)c[nH]c2c1OC(F)F [Example T-121] | 
< 50 | COC(=O)Nc1ccc2c(-c3nc(N[C@H]4CCC(C)(C)NC4)ncc3C(F)(F)F)c[nH]c2c1OC(F)F [Example T-108] | IC50 (CDK2/Cyclin El): > 500 nM; IC50 (CDK9/Cyclin Tl): > 500 nM; IC50 ([2]; 2 mM ATP, read-out: CDK12 kinase IC50): > 500 nM
< 50 | C#Cc1c(NC(=O)OC)ccc2c(-c3nc(N[C@H]4CCC(C)(C)NC4)ncc3C(F)(F)F)c[nH]c12 [Example T-90] | 
< 50 | COC(=O)N(C)c1ccc2c(-c3nc(N[C@H]4CCCNC4)ncc3C(F)(F)F)c[nH]c2c1C(C)(F)F [Example T-170] | 
< 50 | COC(=O)Nc1ccc2c(-c3nc(N[C@H]4CCCNC4)ncc3Cl)c[nH]c2c1OC(F)(F)F [Example T-123] | 
< 50 | COC(=O)Nc1ccc2c(-c3nc(N[C@H]4CCCNC4)ncc3C(F)(F)F)c[nH]c2c1C(C)(C)O [Example T-157] | 
< 50 | CCN[C@H]1CCC[C@@H]1Nc1ncc(C(F)(F)F)c(-c2c[nH]c3c(Br)c(NC(=O)OC)ccc23)n1 [Example T-115] | 
< 50 | COC(=O)Nc1ccc2c(-c3nc(N[C@H]4CCCN(C)C4)ncc3C(F)(F)F)c[nH]c2c1C(C)(F)F [Example T-171] | 
50 to 500 | COC(=O)Nc1ccc2c(-c3nc(N[C@H]4CC[C@H](C)NC4)ncc3C(F)(F)F)c[nH]c2c1Cl [Example T-147] | 
50 to 500 | COC(=O)Nc1ccc2c(-c3nc(N[C@H]4CCC(C)NC4)ncc3C(F)(F)F)c[nH]c2c1Cl (stereo partly shown) [Example T-145] | 
50 to 500 | COC(=O)Nc1ccc2c(-c3nc(N[C@H]4CCC(C)(C)NC4)ncc3C(F)(F)F)c[nH]c2c1OC1CCCC1 [Example T-92] | 
< 50 | CCN[C@H]1CCC[C@@H]1Nc1ncc(C(F)(F)F)c(-c2c[nH]c3c(C(F)(F)F)c(NC(=O)OC)ccc23)n1 [Example T-117] | 
< 50 | COC(=O)Nc1ccc2c(-c3nc(N[C@H]4CCCN(C)C4)ncc3C(F)(F)F)c[nH]c2c1C(F)(F)F [Example T-172] | 
50 to 500 | COC(=O)Nc1ccc2c(-c3nc(N[C@H]4CC[C@H](C)NC4)ncc3C(F)(F)F)c[nH]c2c1Br [Example T-144] | 
< 50 | COC(=O)N(C)c1ccc2c(-c3nc(N[C@H]4CCCNC4)ncc3C(F)(F)F)c[nH]c2c1OC [Example T-166] | 
< 50 | COC(=O)Nc1ccc2c(-c3nc(N[C@H]4CCC(C)(C)NC4)ncc3C(F)(F)F)c[nH]c2c1CC(F)(F)F [Example T-97] | 

IC50 [1] [nM] | SMILES | other results
< 50 | COC(=O)Nc1ccc2c(-c3nc(N[C@H]4CCCN(C)C4)ncc3C(F)(F)F)c[nH]c2c1OC [Example T-167] | 
< 50 | CC(=O)Nc1ccc2c(-c3nc(N[C@H]4CCCNC4)ncc3C(F)(F)F)c[nH]c2c1C(C)(C)O [Example T-158] | 
< 50 | COC(=O)Nc1ccc2c(-c3nc(N[C@H]4CCC(C)(C)NC4)ncc3C(F)(F)F)c[nH]c2c1OC1CCC1 [Example T-93] | 
< 50 | COC(=O)Nc1ccc2c(-c3nc(N[C@@H]4CNCC(C)(C)C4)ncc3C(F)(F)F)c[nH]c2c1C(F)(F)F [Example T-101] | 
< 50 | COC(=O)Nc1ccc2c(-c3nc(NC4CNC5CC5C4)ncc3C(F)(F)F)c[nH]c2c1Cl (stereo not shown) [Example T-126] | 
50 to 500 | COC(=O)Nc1ccc2c(-c3nc(N[C@H]4CC[C@H](C)NC4)ncc3C(F)(F)F)c[nH]c2c1OCC(F)(F)F [Example T-152] | 
< 50 | COC(=O)Nc1ccc2c(-c3nc(N[C@H]4CCCN(C)C4)ncc3C(F)(F)F)c[nH]c2c1OC(F)F [Example T-173] | 
< 50 | COC(=O)Nc1ccc2c(-c3nc(N[C@H]4CCCN(C)C4)ncc3C(F)(F)F)c[nH]c2c1C1CC1 [Example T-174] | 
< 50 | COC(=O)Nc1ccc2c(-c3nc(N[C@H]4CCC(C)(C)NC4)ncc3C(F)(F)F)c[nH]c2c1SC(C)C [Example T-89] | 
< 50 | COC(=O)Nc1ccc2c(-c3nc(N[C@H]4CCCN(C)C4)ncc3C(F)(F)F)c[nH]c2c1C(F)(F)F [Example T-111] | 
50 to 500 | COC(=O)Nc1ccc2c(-c3nc(N[C@H]4CC=C(C)NC4)ncc3C(F)(F)F)c[nH]c2c1OC [Example T-133] | 
< 50 | COC(=O)N(C)c1ccc2c(-c3nc(N[C@H]4CCCNC4)ncc3C(F)(F)F)c[nH]c2c1C1CC1 [Example T-175] | 
< 50 | CCOc1c(NC(=O)OC)ccc2c(-c3nc(N[C@H]4CCC(C)(C)NC4)ncc3C(F)(F)F)c[nH]c12 [Example T-95] | 
< 50 | COC(=O)Nc1ccc2c(-c3nc(N[C@H]4CCC(C)(C)NC4)ncc3C(F)(F)F)c[nH]c2c1OC(C)C [Example T-94] | 
50 to 500 | COC(=O)Nc1ccc2c(-c3nc(N[C@H]4CC=C(C)NC4)ncc3C(F)(F)F)c[nH]c2c1Cl [Example T-148] | 
50 to 500 | COC(=O)Nc1ccc2c(-c3nc(N[C@H]4CC[C@H](C)NC4)ncc3C(F)(F)F)c[nH]c2c1OC [Example T-141] | 

More lines, now with the values behind:

SMILES | IC50 [1] [nM] | other results
COC(=O)Nc1ccc2c(-c3nc(N[C@H]4CCCNC4)ncc3C(F)(F)F)c[nH]c2c1C1CCOC1 (stereo partly shown) [Example T-83] | < 50 | 
COC(=O)N(C)c1ccc2c(-c3nc(N[C@H]4CCC(C)(C)NC4)ncc3C(F)(F)F)c[nH]c2c1P(C)(C)=O [Compound T-103] | < 50 | 
COC(=O)N(C)c1ccc2c(-c3nc(N[C@H]4CCCNC4)ncc3C(F)(F)F)cn(C)c2c1Br [Example T-41] | 50 to 500 | 
COC(=O)Nc1ccc2c(-c3nc(N[C@H]4CCC[C@H](O)C4)ncc3C(F)(F)F)c[nH]c2c1Br [Example T-30] | > 500 | 
COC(=O)Nc1ccc2c(-c3nc(N[C@H]4CCNC4)ncc3C(F)(F)F)c[nH]c2c1Br [Example T-39] | 50 to 500 | 
COC(=O)Nc1ccc2c(-c3nc(N[C@H]4CCC(C)(C)NC4)ncc3Cl)c[nH]c2c1C(F)(F)F [Example T-87] | < 50 | 
O=C1OCCN1c1ccc2c(-c3nc(N[C@H]4CCCNC4)ncc3C(F)(F)F)c[nH]c2c1 [Example T-49] | < 50 | 
CN(C)C(=O)n1cc(-c2nc(N[C@H]3CCC(C)(C)NC3)ncc2C(F)(F)F)c2ccc(O)cc21 [Example T-33] | 50 to 500 | 
COC(=O)Nc1ccc2c(-c3nc(N[C@@H]4CCNC4)ncc3C(F)(F)F)c[nH]c2c1Br [Example T-61] | 50 to 500 | 
COC(=O)Nc1ccc2c(-c3nc(N[C@H]4CCC[C@H]4N)ncc3C(F)(F)F)c[nH]c2c1Br [Example T-59] | 50 to 500 | 
CN(C)C(=O)Oc1ccc2c(-c3nc(N[C@H]4CCC(C)(C)NC4)ncc3C(F)(F)F)c[nH]c2c1 [Example T-32] | 50 to 500 | 
COC(=O)Nc1ccc2c(-c3nc(N[C@H]4CC[C@@H](N)C4)ncc3C(F)(F)F)c[nH]c2c1Br [Example T-53] | > 500 | 
CN[C@@H]1C[C@H]2O[C@@](C)([C@@H]1OC)n1c3ccccc3c3c4c(c5c6ccccc6n2c5c31)C(=O)NC4 [Staurosporine, reference compound] |  | IC50 [2]: > 500 nM
COC(=O)Nc1ccc2c(-c3nc(N[C@H]4CC[C@H](N)C4)ncc3C(F)(F)F)c[nH]c2c1Br [Example T-54] | 50 to 500 | 
COC(=O)Nc1ccc2c(-c3nc(N[C@H]4CCCNC4)ncc3C)c[nH]c2c1Br [Example T-76] | < 50 | 
O=C1CCCN1c1ccc2c(-c3nc(N[C@H]4CCNC4)ncc3C(F)(F)F)c[nH]c2c1Br [Example T-47] | 50 to 500 | 
COC(=O)Nc1ccc2c(-c3nc(N[C@@H]4CC[C@@H](N)C4)ncc3C(F)(F)F)c[nH]c2c1Br [Example T-56] | 50 to 500 | 
CCc1cnc(N[C@H]2CCCNC2)nc1-c1c[nH]c2c(Br)c(NC(=O)OC)ccc12 [Example T-77] | < 50 | 
COC(=O)Nc1ccc2c(-c3nc(N[C@H]4CCCNC4)ncc3Cl)c[nH]c2c1Br [Example T-71] | < 50 | 
COC(=O)Nc1ccc2c(-c3nc(N[C@H]4CCCNC4)ncc3C(F)(F)F)cn(C)c2c1Br [Example T-40] | 50 to 500 | 
O=C1OCCN1c1ccc2c(-c3nc(N[C@H]4CCNC4)ncc3C(F)(F)F)c[nH]c2c1Br [Example T-46] | 50 to 500 | 
COC(=O)Nc1ccc2c(-c3nc(N[C@@H]4CCC[C@@H]4N)ncc3C(F)(F)F)c[nH]c2c1Br [Example T-58] | 50 to 500 | 
COC(=O)Nc1ccc2c(-c3nc(N[C@H]4CCC5(CC5)NC4)ncc3C(F)(F)F)c[nH]c2c1OC [Example T-38] | < 50 | 
COC(=O)Nc1ccc2c(-c3nc(N[C@@H]4CC[C@H](N)C4)ncc3C(F)(F)F)c[nH]c2c1Br [Example T-55] | > 500 | 
COC(=O)Nc1ccc2c(-c3nc(N[C@H]4CCCNC4)ncc3C(C)C)c[nH]c2c1Br [Example T-78] | 50 to 500 | 
COC(=O)Nc1ccc2c(-c3nc(N[C@H]4CCC(C)(C)NC4)ncc3Cl)c[nH]c2c1Br [Example T-72] | < 50 | 
COC(=O)Nc1ccc2c(-c3nc(N[C@@H]4CCC[C@H]4N)ncc3C(F)(F)F)c[nH]c2c1Br [Example T-57] | 50 to 500 | 
CCCOC(=O)Nc1ccc2c(-c3nc(N[C@H]4CCCNC4)ncc3C(F)(F)F)c[nH]c2c1Br [Example T-45] | 50 to 500 | 
COC(=O)Nc1ccc2c(-c3nc(N[C@H]4CCC[C@H](O)C4)ncc3C(F)(F)F)c[nH]c2c1Br [Compound T-50] | > 500 | 
